Reference: PMC9146228, “Bioactivity of Novel Pyrazole-Thiazolines Scaffolds against Trypanosoma cruzi: Computational Approaches and 3D Spheroid Model on Drug Discovery for Chagas Disease” (Pharmaceutics, 2022)
Like-named read-outs stand apart in the source and are kept apart here.

Columns and labels:
[1] = system: T. cruzi (Dm28c-Luc) trypomastigotes; experiment: microbe, parasite or virus in culture; format: cell-based, Trypanosoma cruzi
Description: The screening assays were performed with T. cruzi clone Dm28c (TcI) genetically modified to express luciferase gene (Dm28c-Luc), kindly provided by Dr. Cristina Henriques. Trypomastigotes were isolated from T. cruzi-infected Vero cell monolayers (10:1 parasites/host cell ratio). On the 4th day post-infection (dpi), free trypomastigotes in the culture supernatant were harvested, and the number of parasites/mL was quantified in a Neubauer chamber.
The trypanocidal activity of the pyrazole-thiazoline derivatives was evaluated against trypomastigote and intracellular amastigote forms of T. cruzi (Dm28c-Luc). Tissue-derived trypomastigotes (1 × 10^6 parasites/well) were incubated with pyrazole-thiazoline derivatives and Bz in different concentrations (0.41–100 µM) for 24 h at 37 °C in a humidified atmosphere and 5% CO2. The parasite viability was determined by the addition of luciferin (300 µg/mL), followed by luminescence detection on the GloMax microplate reader (Promega Corporation, Madison, WI, USA).
(§1) After 72 h of treatment, luciferin (300 µg/mL) was added to the culture, and the viability of the parasites was assessed by reading the luminescent signal on the GloMax reader (Promega Corporation, Madison, WI, USA). Controls were also performed in non-toxic concentrations of DMSO (≤ 1%). The concentration that reduces the number of viable parasites by 50% (IC50) or 90% (IC90) was calculated by linear regression. The selectivity index (SI) was calculated as CC50/IC50 for each parasite form.

[2] = system: T. cruzi (Dm28c-Luc) intracellular amastigotes; experiment: Trypanocidal activity against intracellular amastigotes in infected Vero cell monolayers; format: cell-based, Trypanosoma cruzi; conditions: for IC90: read-out: Trypanocidal Activity Intracellular Amastigotes IC90; for Intracellular Amastigotes SI (CC50 of Vero cells/IC50): selectivity index vs Vero cells
Description: The susceptibility of intracellular amastigotes to pyrazole-thiazoline derivatives (series 1 and 2) was evaluated using 24 h T. cruzi-infected Vero cell monolayers (10:1 parasite/host cell ratio). Then, the cultures were washed with PBS to remove non-internalized parasites, and 200 μL of fresh medium with a serial dilution of pyrazole-thiazoline derivatives and Bz (0.41–100 µM) was added for 72 h at 37 °C.
as §1

[3] = Cytotoxicity in vitro assay (CellTiter-Glo); format: cell-based; conditions: African green monkey, Vero cells, mean ± SD
Description: Vero cells, obtained from the Rio de Janeiro Cell Bank (BCRJ code 0245), were dissociated with trypsin–EDTA solution (0.025%), and maintained in RPMI 1640 medium supplemented with 10% fetal bovine serum (FBS) at 37 °C in a humidified atmosphere of 5% CO2.
The compound toxicity was evaluated in Vero cell cultures. Briefly, Vero cells were seeded in 96-well white culture plates at a density of 1.5 × 10^4 cells/well for 24 h at 37 °C and 5% CO2. Thereafter, the cell monolayers were washed with phosphate-buffered saline (PBS) and 200 μL of fresh medium with a serial dilution of the pyrazole-thiazoline derivatives and Bz (1.9–500 µM) added. The cell viability was determined by luminescent assay using the CellTiter-Glo Kit (Promega Corporation, Madison, WI, USA) based on the ATP level. After 72 h of treatment, 20 μL of CellTiter-Glo solution was added per well, and cultures were kept for 2 min under agitation. The luminescent signal was read on the GloMax reader (Promega Corporation, Madison, WI, USA). The concentration of compounds that reduced 50% of cell viability (CC50) was calculated by linear regression. At least three independent assays were performed in duplicate.

[4] = system: T. cruzi (Dm28c-Luc)-infected Vero cell spheroids; experiment: 3D culture model: T. cruzi-infected Vero cell spheroids; format: cell-based, Trypanosoma cruzi; conditions: for DAPI staining fluorescence microscopy of infected microtissue: 100 μM; for parasite load, arbitrary luminescence unit (ALU): 72 h, concentration higher than IC90 (100 μM in Figure 6 legend), untreated ALU = 166,678 ± 22,824
Description: Tridimensional Vero cell cultures were obtained as previously described. Briefly, the isolated cells (2 × 10^4/well) were cultured in 96-well U-bottom plates previously coated with 1% agarose. The spheroids were kept for 5 days at 37 °C in RPMI 1640 medium supplemented with 10% FBS for complete three-dimensional organization. Both 2D and 3D culture models were used for trypanocidal activity assays.
Vero cell spheroids were infected for 24 h with 2 × 10^5 trypomastigotes (Dm28c-Luc). […] Parasite load was assessed by the luminescence reaction after adding the luciferase substrate (luciferin 300 µg/mL). In addition, fluorescence microscopy images of untreated and treated T. cruzi-infected spheroids were acquired after fixing the cultures with 4% paraformaldehyde in PBS and 4′,6-diamidino-2-phenylindole (DAPI) staining, a DNA dye. The samples were observed under the Zeiss Axio Imager M2 fluorescence microscope (Carl Zeiss, Baden-Württemberg, Germany).

[5] = system: T. cruzi Dm28c-Luc in Vero cell cultures; experiment: Reversibility (washout) assay; format: cell-based, Trypanosoma cruzi; conditions: 100 µM, 72 h treatment then 72 h drug-free; for inhibition at 100 µM: Trypanosoma cruzi, Vero, read-out: inhibition of cell monolayer infection (intracellular amastigotes) after washout
Description: Then, the cultures were washed with PBS, and maintained for another 72 h at 37 °C in a drug-free medium. Trypomastigotes released in the culture supernatant were detected by transferring the culture medium to 96-well plates, followed by luciferin (300 µg/mL) addition. Viable intracellular amastigotes were also accessed by adding luciferin solution to the cell monolayers.

[6] = system: T. cruzi (strain Silvio X10/7); design: method as in PMID 30001347; conditions: 16 days treatment of infected Vero cell monolayers; cited from earlier work
[7] = system: T. cruzi cysteine proteases (trypomastigote protein extract); experiment: Proteinase activity in solution (Z-FR-AMC); format: biochemical, Trypanosoma cruzi; conditions: for maximum inhibition of cysteine protease activity: up to 100 µM, Z-FR-AMC substrate
Description: Trypomastigote protein extracts (Dm28c-Luc; 10^8 parasites/mL) were obtained as previously described. The cysteine protease activity of the total protein extracts (5 µg) was measured using the reaction buffer (CH3COONa 10 mM, pH 5.0 containing 1 mM DTT), in the presence of the fluorogenic peptide substrate […], CBZ-L-Phenylalanyl-l-Arginine amide (Z -FR-AMC), and serial dilutions of pyrazole-thiazolines derivatives (100–6.25 µM). The samples were incubated for 45 min at room temperature. The variation in arbitrary fluorescence units (AFU), corresponding to the enzymatic cleavage of the fluorogenic substrate, was monitored in a SpectraMax M2e reader (Molecular Devices, Sunnyvale, CA, USA) for 1 h, with excitation values at 370 nm and emission values at 460 nm. Extracts incubated with 0.5% DMSO or with cysteine protease inhibitor E-64 were used as […]. […] The inhibitory activity was expressed as percentage inhibition.

[8] = Trypanosoma cruzi; Dm28c-Luc, 24 h, mean ± SD; read-out: Trypanocidal Activity Trypomastigotes IC90
[9] = selectivity index vs Vero cells
[10] = Dm28c-Luc, 24 h, mean ± SD; read-out: Trypanocidal Activity Trypomastigotes IC50
[11] = Trypanosoma cruzi, 24 h, Dm28c-Luc, 24 h, mean ± SD; read-out: Trypanocidal Activity Trypomastigotes IC50
[12] = Dm28c-Luc in Vero cells, 72 h, mean ± SD, read-out: Trypanocidal Activity Intracellular Amastigotes IC50
[13] = Trypanosoma cruzi, Vero, 72 h, Dm28c-Luc in Vero cells, 72 h, mean ± SD, read-out: Trypanocidal Activity Intracellular Amastigotes IC50
[14] = Trypanosoma cruzi, Vero, pIC50 = −log IC50, Dm28c-Luc clone, read-out: Intracellular Amastigotes pIC50 (converted)
[15] = Trypanosoma cruzi, Dm28c-Luc in Vero cells, 72 h, mean ± SD

SMILES	IC90 [1, 8]	Trypomastigotes SI (CC50 of Vero cells/IC50) [1, 9]	CC50 at 72 h [3]	DAPI staining fluorescence microscopy of infected microtissue [4]	parasite load, arbitrary luminescence unit (ALU) [4]	IC50 [1, 11]	IC50 [2, 12]	IC50 [2, 13]	IC50 [2, 14]	IC90 [2, 15]	Intracellular Amastigotes SI (CC50 of Vero cells/IC50) [2]	melting point	also measured
O=C(Cn1ccnc1[N+](=O)[O-])NCc1ccccc1 [Bz, benznidazole, reference compound]	95.9 ± 4.7 µM	>18.9	> 500 µM	drastic reduction in the infection profile	20,024 ± 2796 ALU								IC50 ([1]; Trypanosoma cruzi; Dm28c-Luc, 24 h, mean ± SD; read-out: Trypanocidal Activity Trypomastigotes IC50): 19.6 ± 2.3 µM; IC50 ([2]; Trypanosoma cruzi, Vero, 72 h, read-out: Trypanocidal Activity Intracellular Amastigotes IC50): 3.3 ± 1.1 µM; IC90 ([2]; Trypanosoma cruzi, Vero, 72 h): 13.7 ± 4.2 µM; IC50 ([2]; Trypanosoma cruzi, Vero, read-out: Intracellular Amastigotes pIC50 (converted)): 3.31 µM; parasite clearance in supernatant and cell monolayers after washout [5]: sustained the parasite clearance; parasite relapse / clearance after prolonged treatment [6]: prevention of spontaneous parasite relapse for up to 60 days
Clc1ccc(-n2cc(C3=NCCS3)cn2)cc1Cl [Compound 2e, 2-(1-(3,4-dichlorophenyl)-1H-pyrazol-4-yl)-4,5-dihydrothiazole]	6.9 ± 2 µM			reduction in parasite load	15,110 ± 1990 ALU	≤ 2.1 µM	7.84 ± 1 µM	< 10 µM	< 6.92 µM	30.4 ± 3.7 µM			IC50 [1, 10]: 1.9 ± 0.4 µM; inhibition at 100 µM [5]: 69%; maximum inhibition of cysteine protease activity [7]: ≤ 10%
Fc1ccc(-n2cc(C3=NCCS3)cn2)cc1 [Compound 2g, 2-(1-(4-fluorophenyl)-1H-pyrazol-4-yl)-4,5-dihydrothiazole]	30.1 ± 2.8 µM	7.3	58.6 ± 8.11 µM			7.9 ± 1 µM		14 ± 1.8 µM	14.1 µM	98 ± 3.4 µM	4.18	131 to 133 °C	
Fc1cccc(-n2cc(C3=NCCS3)cn2)c1 [Compound 2h, 2-(1-(3-fluorophenyl)-1H-pyrazol-4-yl)-4,5-dihydrothiazole]	36.3 ± 3.2 µM	3.8	37.9 ± 4.8 µM			9.8 ± 1.5 µM	9.1 ± 1.7 µM	< 10 µM	~10 µM	76.3 ± 6.1 µM	4.19	92 to 94 °C	
Brc1ccc(-n2cc(C3=NCCS3)cn2)cc1 [Compound 2i, 2-(1-(4-bromophenyl)-1H-pyrazol-4-yl)-4,5-dihydrothiazole]	13.3 ± 2.8 µM			reduction in parasite load	25,788 ± 2776 ALU	≤ 2.1 µM	6.8 ± 1.1 µM	< 10 µM	< 6.92 µM	27.1 ± 3.6 µM	31.8		IC50 [1, 10]: 2.1 ± 0.9 µM; inhibition at 100 µM [5]: 89%; maximum inhibition of cysteine protease activity [7]: ≤ 10%
Brc1cccc(-n2cc(C3=NCCS3)cn2)c1 [Compound 2j, 2-(1-(3-bromophenyl)-1H-pyrazol-4-yl)-4,5-dihydrothiazole]	48.2 ± 4.1 µM	7.11	64.5 ± 7.3 µM			9.1 ± 0.9 µM	8.1 ± 1.3 µM	< 10 µM	~10 µM	31.1 ± 3.1 µM	7.9	104 to 106 °C	
COc1ccc(-n2cc(C3=NCCS3)cn2)cc1 [Compound 2k, 2-(1-(4-methoxyphenyl)-1H-pyrazol-4-yl)-4,5-dihydrothiazole]	36.1 ± 2.6 µM	36.1	110 ± 9.4 µM			3.1 ± 0.3 µM		22.4 ± 2.8 µM	22.9 µM	53 ± 9.8 µM	4.9	114 to 116 °C	
Clc1cccc(-n2cc(C3=NCCS3)cn2)c1Cl [Compound 2l, 2-(1-(2,3-dichlorophenyl)-1H-pyrazol-4-yl)-4,5-dihydrothiazole]	> 100 µM	3.44	88.7 ± 9.3 µM			25.8 ± 1.9 µM		25.3 ± 2.4 µM	25.7 µM	75.5 ± 8.3 µM	3.5	112 to 114 °C	
CC(C)C[C@H](NC(=O)[C@H]1O[C@@H]1C(=O)O)C(=O)NCCCCN=C(N)N [Compound E-64, E-64, reference compound]													inhibition of cysteine protease activity ([7]; from the lowest concentration analyzed (6.25 µM)): more than 80%
CC[C@@H]([C@H](C)O)n1ncn(-c2ccc(N3CCN(c4ccc(OC[C@@H]5CO[C@@](Cn6cncn6)(c6ccc(F)cc6F)C5)cc4)CC3)cc2)c1=O [posaconazole]													parasite relapse / clearance after prolonged treatment [6]: unable to achieve parasite clearance
